“Also recorded” adds a separate entry of the source. Read-outs that look alike come from different tables or passages of the source. Non-standard residues stand in square brackets, D forms with d. Residues, ends and D or L forms follow the SMILES beside them.

This is an account of results in patent publication US20230139826A1 (NONO INC., priority 2020, published 2023).

In data set [1] the test system is transient middle cerebral artery occlusion (tMCAO). The data set is described as follows: Rat transient middle cerebral artery occlusion model. The conditions noted are these: rat tMCAO, comparison of the two peptides.
Procedure: Nerinetide and lodoxamide was administered to rats intravenously as a bolus injection, 60 minutes after tMCAo. […] Bars in A and represent mean±SD, with all individual data points plotted. Asterisks in A indicate P<0.01 when compared to the vehicle group (one-way ANOVA post hoc Tukey's correction for multiple comparisons test) N=12-14 animals/group. […] Significant differences are indicated with an asterisk when compared to the vehicle group (Kruskal-Wallis analysis of variance on ranks with a post-hoc Dunn's correction for multiple comparisons test, *P<0.01). Vehicle: PBS alone. Scrambled: ADA peptide incapable of binding PSD-95.
All animals subjected to surgery had their physiological parameters measured prior to MCA occlusion. PE-50 polyethylene tubing was inserted into the right femoral artery for invasive monitoring of mean arterial blood pressure and for obtaining blood samples to measure blood gases (pH, PaO2, and PaCO2), electrolytes (Na^+, K^+, iCa) and plasma glucose at baseline [Blood gas cartridge CG8+, VetScan i-STAT 1 Analyzer].
Infarct volumes and hemispheric swelling were evaluated at 24 hours post-stroke from standard brain slices stained with 2% 2,3,5-triphenyltetrazolium chloride (Sigma Aldrich, St. Louis, Md., USA)(7). Neurologic scoring was conducted at 24 hours after stroke onset using forelimb-placing tests comprising of frontal visual placing, sideways visual placing, frontal tactile placing, sideways tactile placing, and vertical tactile placing (scores range from 0-2 in each component for a maximum of 12 indicating maximum impairment.
Data set [2] in a line: In-vivo pharmacokinetic analysis in rats. To be noted: rat, intravenous bolus 7.6 mg/kg. The protocol:
Since the effect of nerinetide in the ESCAPE-NA1 trial was negated by alteplase, we next evaluated the effects of alteplase on pharmacokinetics (PK) of nerinetide in rats. Alteplase was administered at 0.9 mg/kg (human dose) and at 5.4 mg/kg (6 times the human dose) in an infusion that simulated the clinical protocol (10% bolus followed by a 60 min infusion of the remainder). Nerinetide was administered as an intravenous bolus at the start of the alteplase infusion at 7.6 mg/kg.
The goal of these study was to evaluate nerinetide PK parameter changes when in the presence of circulating rt-PA and plasmin. Male naïve rats received an intravenous administration of either nerinetide alone, nerinetide plus rt-PA (0.9 mg/kg) or nerinetide plus rt-PA (5.4 mg/kg). Sample collection was performed pre-dose and 0 min, 5 min, 10 min, 20 min, 50 min post-dose. At each time point, approximately 300 uL of blood was sampled from each animal using a fresh syringe. Blood samples were collected in previously prepared Eppendorf tubes [30 ul of EDTA 2.5%] and centrifuged for 20 minutes to separate plasma and cell components.
Plasma samples were stored at −80° C. until analyzed.
Changes in peptide concentration were analyzed using a two-way repeated measures ANOVA, followed by the Sidak correction for multiple comparisons. The pharmacokinetic (PK) parameters of peak plasma concentration (Cmax) and the area under the plasma concentration-time curve from 0 to last measured concentration (AUC) were obtained with PKsolver Software (USA) using a non-compartmental analysis and employing a linear interpolation. For stroke studies, differences between groups were tested using a One-way ANOVA with a Tukey's correction for multiple comparisons. […] Values for animals experiencing premature death due to any reason including subarachnoid hemorrhage or hemorrhagic transformation were imputed to reflect the worst neurological score and the maximum stroke volume achieved across all animals.

Another data set addresses plasmin (Homo sapiens, UniProt P00747). Here is the method:
(A) LC/MS spectrum of nerinetide after incubation with plasmin in PBS. 10 uL aliquots of nerinetide (18 mg/mL) and plasmin (1 mg/mL) were incubated in 500 uL tubes of phosphate-buffered saline at 37 C for 5 min and the reaction stopped by cooling to −80 C until tested. […] (B, C) In-vitro effect of rt-PA on nerinetide content in rat (B) and human (C) plasma. Nerinetide was spiked into the plasma samples at t=0 at a concentration of 65 ug/ml, whereas alteplase (rt-PA) was administered as a 60 min infusion at the indicated concentration (D, E) In-vivo effect of the simultaneous administration of nerinetide and rt-PA on Cmax (D) and AUC (E) in the rat. The nerinetide bolus and alteplase (60 min infusion) were started simultaneously through two separate intravenous lines. Symbols represent mean±SD. […] […] (SEQ ID NO:3) (Full-length NA-1, undigested), […] […] (SEQ ID NO:8), […] […] (SEQ ID NO:10).
Direct ELISA of the indicated biotinylated peptides to the PDZ2 domain of PSD-95. […] Symbols indicate the mean±SD of triplicate experiments. […] (B). […] E,F. Time course of nerinetide or D-TAT-L-2B9c content in rat plasma (E) and human plasma (F) during a challenge with tenecteplase (TNK; 37.5 ug/ml or 6.25 ug/ml, respectively). […] (repeated measures two-way ANOVA with a post hoc Sidak's multiple comparisons test, *P<0.01). Symbols are means±SD. […]

The target in another data set is PDZ2 domain of PSD-95 (Homo sapiens, UniProt P78352). Briefly: Direct ELISA of biotinylated peptides to PSD-95 PDZ2. The data set is classed as binding. Here is the method: ELISA plates were coated with 1 ug/ml PSD95PDZ2 in 50 mM bicarbonate buffer overnight at 4 C. The plate was blocked in 2%BSA in PBST (0.05%) for 2 h at room temperature. It was then incubated with biotinylated ligand (nerinetide, D-tat-L2B9c or D-Tat-L-AA) at the indicated concentrations (FIG. 4A) and incubated overnight at 4 C. After washing with PBS-T, the plate was incubated for 30 min with (1:3000) SA-HRP, washed again, and incubated with TMB solution for 10 min. The reaction was stopped with 100 ul H2504. Absorbance was determined at 450 nm with the synergy H1 reader.
PDZ2 domain of PSD-95, sequence (P78352 160-246 limits assumed): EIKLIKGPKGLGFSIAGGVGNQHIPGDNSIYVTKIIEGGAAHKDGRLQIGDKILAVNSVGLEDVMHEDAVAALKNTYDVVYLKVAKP

Data set [3] deals with embolic middle cerebral artery occlusion (eMCAO). Briefly: Rat embolic middle cerebral artery occlusion model with alteplase reperfusion. The data set is classed as in vivo, Sprague-Dawley rats. The protocol:
To test this, male Sprague-Dawley rats (10-12 weeks old; 270-310 g; Charles River, Montreal, QC, Canada) were subjected to embolic middle cerebral artery occlusion (eMCAO), produced by the introduction of an autologous blood thrombus into the middle cerebral artery. Reperfusion was achieved by treatment with intravenous alteplase at a total dose of 5.4 mg/kg beginning at 90 minutes after ischemia onset. Alteplase was administered using the human injection protocol in which 10% of the total dose is given as a bolus, with the remainder 90% of the dose being given over a 60-minute infusion. […] This dose was chosen because in pilot studies, higher doses of alteplase (10× human dose) produced unacceptable mortality rates due to hemorrhagic conversions of strokes. Nerinetide was administered either 30 minutes prior to, or concurrently with, the start of the alteplase administration (FIG. 5A) at a dose of 7.6 mg/kg. […] Infarct volumes, hemispheric swelling and neurological scores were evaluated at 24 hours.
Male Sprague-Dawley rats were subjected to eMCAO as already described. Nerinetide (7.6 mg/kg) or D-Tat-L-2B9c (7.6 mg/kg) were given as bolus injections at 60 minutes. Alteplase (5.4 mg/kg over 60 min) was also started at 60 min after eMCAO, concurrently with the active agent that inhibits PSD-95. Neurological scoring, infarct volume, and hemispheric swelling were assessed at 24 hours (FIG. 8A).
The studies were designed to have 80% power to detect a 40% absolute difference between control and treatment groups at p=0.05. Animal randomization, drug allocation and treatment drug preparation were performed by a research associate not directly involved with surgical or outcome assessment. Nerinetide and D-Tat-L-2B9c were freshly prepared at a concentration of 7.6 mg/mL in 500 uL aliquots. Alteplase was prepared from lyophilized drug and, like matching placebo, stored in identical glass tubes. Drugs were kept at 4° C. until 10 minutes prior to use. The surgeon and the investigators responsible for the surgery, stroke volume measurement, behavioural assessment and statistical analysis were blinded to treatment allocation.

A short description of data set [4]: rat plasma in the absence of alteplase. The conditions noted are these: Rat Sprague Dawley, 37° C., up to 45 min.
Data set [5] deals with rt-PA (alteplase) (135 ug/ml). Briefly: PBS during a challenge with rt-PA (135 ug/ml). To be noted: 37° C.
Another data set deals with plasmin (1 mg/mL). The data set is described as follows: plasmin in PBS (phosphate-buffered saline). The conditions noted are these: 37 C, up to 5 min.
Data set [6] is described as follows: human plasma in the absence of alteplase. The conditions noted are these: 37° C., up to 45 min.
The conditions of data set [7]: cited from earlier work.

Turning to `CC[C@H](C)[C@H](NC(=O)[C@H](CO)NC(=O)[C@H](CO)NC(=O)[C@H](CC(C)C)NC(=O)[C@H](CCCCN)NC(=O)[C@@H](CCCNC(=N)N)NC(=O)[C@@H](CCCNC(=N)N)NC(=O)[C@@H](CCCNC(=N)N)NC(=O)[C@@H](CCC(N)=O)NC(=O)[C@@H](CCCNC(=N)N)NC(=O)[C@@H](CCCNC(=N)N)NC(=O)[C@@H](CCCCN)NC(=O)[C@@H](CCCCN)NC(=O)[C@@H](CCCNC(=N)N)NC(=O)CNC(=O)[C@H](N)Cc1ccc(O)cc1)C(=O)N[C@@H](CCC(=O)O)C(=O)N[C@@H](CO)C(=O)N[C@@H](CC(=O)O)C(=O)N[C@H](C(=O)O)C(C)C` [D-Tat-L-2B9c, ygrkkrrqrrrKLSSIESDV SEQ ID NO:89] (H-[dY]G[dR][dK][dK][dR][dR][dQ][dR][dR][dR]KLSSIESDV-OH; C-terminus assumed), in data set [1], the “reducing infarction volume, hemispheric swelling and improving neurological scores” value was “equally effective”. For the same molecule, the “pharmacokinetic profile compared with nerinetide” value in [2] was “higher cmax and AUC”. The “stability alone in phosphate buffered saline” value on plasmin is reported as “stable”. Also, on PDZ2 domain of PSD-95, the EC50 worked out at 151 nM and the “binding to PDZ2 domain of PSD95 in ELISA” value was “substantially similar binding as nerinetide”. Besides, the “infarct volumes, hemispheric swelling and neurological scores” value in data set [3] (7.6 mg/kg at 60 minutes after eMCAO, 24 hours) was “beneficial effect of D-Tat-L-2B9c was evident”. Besides, in data set [3] (7.6 mg/kg bolus at 60 minutes after eMCAO), the “effect on infarction volume in the absence of alteplase” value is reported as “as effective as nerinetide alone”. Also, the “effect on infarction volume when given concurrently with alteplase” value in data set [3] (peptide 7.6 mg/kg and alteplase 5.4 mg/kg both at 60 min after eMCAO) is given as “this effect persisted”.

As to YGRKKRRQRRRKLSSIESDV, the not cleaved result in data set [4] is on record as “stable”; in data set [5] it was “not affected by co-incubation with alteplase”; in data set [6], “stable”. The cleaved bond entry in the data set on plasmin (1 mg/mL) is listed as “K5-R, 5 min; also recorded: R6-R, 5 min; also recorded: R7-Q, 5 min; also recorded: R9-R, 5 min; also recorded: R11-K, 5 min; also recorded: K12-L, 5 min”. Further, in the data set with plasmin (1 mg/mL), the fragment found entry is given as “RKLSSIESDV (SEQ ID NO:8), 5 min”.

With “alteplase: a recombinant form of tPA; thrombolytic agent [reference compound]”, the “half-life in human plasma” value in data set [7] (in vivo) is recorded as “about five”. Also, the “reduction of infarction volume” value in data set [3] (alteplase alone 5.4 mg/kg given at 60 min after eMCAO) worked out at 26%; in data set [3] (alteplase alone 5.4 mg/kg given at 90 minutes after eMCAO) it was 18%.

B1: Plasmin: serine protease generated from circulating plasminogen by tissue-plasminogen activators (protein, UniProt P00747 20-580; P00747 581-810, looked up)
Plasmin heavy chain A: EPLDDYVNTQGASLFSVTKKQLGAGSIEECAAKCEEDEEFTCRAFQYHSKEQQCVIMAENRKSSIIIRMRDVVLFEKKVYLSECKTGNGKNYRGTMSKTKNGITCQKWSSTSPHRPRFSPATHPSEGLEENYCRNPDNDPQGPWCYTTDPEKRYDYCDILECEEECMHCSGENYDGKISKTMSGLECQAWDSQSPHAHGYIPSKFPNKNLKKNYCRNPDRELRPWCFTTDPNKRWELCDIPRCTTPPPSSGPTYQCLKGTGENYRGNVAVTVSGHTCQHWSAQTPHTHNRTPENFPCKNLDENYCRNPDGKRAPWCHTTNSQVRWEYCKIPSCDSSPVSTEQLAPTAPPELTPVVQDCYHGDGQSYRGTSSTTTTGKKCQSWSSMTPHRHQKTPENYPNAGLTMNYCRNPDADKGPWCFTTDPSVRWEYCNLKKCSGTEASVVAPPPVVLLPDVETPSEEDCMFGNGKGYRGKRATTVTGTPCQDWAAQEPHRHSIFTPETNPRAGLEKNYCRNPDGDVGGPWCYTTNPRKLYDYCDVPQCAAPSFDCGKPQVEPKKCPGR
Plasmin light chain B: VVGGCVAHPHSWPWQVSLRTRFGMHFCGGTLISPEWVLTAAHCLEKSPRPSSYKVILGAHQEVNLEPHVQEIEVSRLFLEPTRKDIALLKLSSPAVITDKVIPACLPSPNYVVADRTECFITGWGETQGTFGAGLLKEAQLPVIENKVCNRYEFLNGRVQSTELCAGHLAGGTDSCQGDSGGPLVCFEKDKYILQGVTSWGLGCARPNKPGVYVRVSRFVTWIEGVMRNN
modifications: plasmin
With B1, the “half-life in human plasma” value in [7] (reported) is 4 to 8 h.
